Test results as given in US6818646B2 (priority 2000, dated 2004).
Structures can show the parent of a compound that is named as a salt.

Target: T1, PDEV (Homo sapiens, UniProt O76074)
T1 construct: PDEV was isolated from rabbit and human tissues according to the protocol described by Boolell et al; from tissue; host or cells: human tissue, homogenate supernatant fractionated on Mono Q
Assay: PDE assay: inhibition of PDEV isolated from human tissue
Type: biochemical
Conditions: for IC50: PDEV inhibitory activity
Procedure: Briefly, rabbit or human tissues were homogenized in an ice-cold buffer solution containing 20 mM HEPES (pH 7.2), 0.25M sucrose, 1 mM EDTA, and 1 mM phenylmethylsulphonyl fluoride (PMSF). The homogenates were centrifuged at 100,000 g for 60 minutes at 4° C. The supernatant was filtered through […] filter and loaded on a Pharmacia Mono Q anion exchange column (1 ml bed volume) that was equilibrated with 20 mM HEPES, 1 mM EDTA and 0.5 mM PMSF. After washing out unbound proteins, the enzymes were eluted with a linear gradient of 100-600 mM NaCl in the same buffer (35 to 50 ml total, depending on the tissue. Enzymes from the skeletal muscle, corpus cavernosum, retina, heart and platelet were eluted with 35, 40, 45, 50, and 50 ml respectively.) The column was run at a flow rate of 1 ml/min and 1 ml fractions were collected. The fractions comprising various PDE activities were pooled separately and used in later studies.
The assays were adapted to a 96-well format. The enzyme was assayed in 5 mM MgCl2, 15 mM Tris HCl (pH 7.4), 0.5 mg/ml bovine serum albumin, 1 μM cGMP or cAMP, 0.1 μCi [^3H]-cGMP or [^3H]-cAMP, and 2-10 μl of column elution. The total volume of the assay was 100 μl. The reaction mixture was incubated at 30° C. for 30 minutes. The reaction was stopped by boiling for 1 minute and then cooled down on ice. The resulting [^3H]5′-mononucleotides were further converted to uncharged [^3H]-nucleosides by adding 25 μl 1 mg/ml snake venom (Ophiophagus hannah) and incubating at 30° C. for 10 minute. The reaction was stopped by the addition of 1 ml Bio-Rad AG1-X2 resin slurry (1:3). All the charged nucleotides were bound by the resin and only uncharged [^3H]-nucleosides remained in the supernatant after centrifuging. An aliquot of 200 μl was taken and counted by liquid scintillation. PDE activity was expressed as pmol cyclic nucleotide hydrolyzed/min/ml of enzyme preparation.
Inhibitor studies were carried out in assay buffer with a final concentration of 10% DMSO.
The % inhibition of the maximum substrate conversion (by the enzyme in the absence of inhibitor) was calculated for each test compound concentration. Using GraphPad Prism's nonlinear regression analysis (sigmoidal dose response), the % inhibition vs log of the test compound concentration was plotted to determine the IC50. Under conditions where substrate concentration <<Km of the enzyme (Km=substrate concentration at which half of the maximal velocity of the enzyme is achieved), Ki is equivalent to the IC50 value.
Unless otherwise noted, PDEV inhibitory activities were measured using human tissue. The abbreviation “stereo” refers to the stereogenic configuration, the abbreviation “Rac” shall denote a racemic mixture.

Compound	IC50 [nM]	inhibition at 10 µM (10 μM test compound) [%]
O=c1c2c([nH]c3ccccc13)C(c1ccc3c(c1)OCO3)N(c1ncc(Br)cn1)C2 (racemic) [Compound 55, 1,2,3,4-Tetrahydro-2-(5-bromopyrimidin-2-yl)-3-(3,4-methylenedioxyphenyl)-9H-pyrrolo-[3,4-b]quinolin-9-one]	4.48	
Oc1c2c(nc3ccccc13)C(c1ccc3c(c1)OCO3)N(c1ncc(-c3cccnc3)cn1)C2 (racemic) [Compound 56, 1,2,3,4-Tetrahydro-2-[5-(3-pyridinyl)-pyrimidin-2-yl]-3-(3,4-methylenedioxyphenyl)-9H-pyrrolo-[3,4-b]quinolin-9-one]	1.24	
O=c1c2c([nH]c3ccccc13)C(c1ccc3c(c1)CCO3)NC2 (racemic) [Compound 17, 1,2,3,4-Tetrahydro-3-(2,3-dihydrobenzofuran-5-yl)-9H-pyrrolo-[3,4-b]quinolin-9-one, hydrochloride salt]		65
Nc1ccc(-c2ccc(C(=O)N3Cc4c([nH]c5ccccc5c4=O)C3c3ccc4c(c3)OCO4)o2)cc1 (racemic) [Compound 26, 1,2,3,4-tetrahydro-3(3,4-methylenedioxyphenyl)2-[5-(4-aminophenyl)-furoyl]-9H-pyrrolo[3,4-b]quinolin-9-one]	1.92	
O=C(c1ccc(-c2ccccc2)o1)N1Cc2c(nc3ccccc3c2O)C1c1ccc2c(c1)OCO2 (racemic) [Compound 110]	0.755	
O=C(c1ccc(-c2ccco2)o1)N1Cc2c(nc3ccccc3c2O)C1c1ccc2c(c1)OCO2 (racemic) [Compound 117]	4.75	
COc1ccc(-c2cnc(N3Cc4c([nH]c5ccccc5c4=O)C3c3ccc4c(c3)CCO4)nc2)cc1 (stereo not drawn) [Compound 39, 1,2,3,4-Tetrahydro-2-[5-(4-methoxyphenyl)-pyrimidin-2-yl]-3-(2,3-dihydrobenzofuranyl)-9H-pyrrolo-[3,4-b]quinolin-9-one]	0.47	
O=C(c1ccc(-c2ccc([N+](=O)[O-])cc2)o1)N1Cc2c(nc3ccccc3c2O)C1c1ccc2c(c1)OCO2 (racemic) [Compound 16, 1,2,3,4-Tetrahydro-3-(3,4-methylenedioxyphenyl)-2-[5-(4-nitrophenyl)-furoyl]-9H-pyrrolo[3,4-b]quinolin-9-one]	0.39	
O=C(O)c1ccc(/C=C/C(=O)N2Cc3c([nH]c4ccccc4c3=O)C2c2ccc3c(c2)OCO3)cc1 (racemic) [Compound 8, (E)-4-[3-Oxo-3-[1,2,3,4-tetrahydro-3-(3,4-methylenedioxyphenyl)-9H-pyrrolo-[3,4-b]quinolin-9-one-2-yl]-1-propenyl]benzoic acid]	0.828	
O=C(c1ccc(-c2ccc(OCCN3CCCC3)cc2)o1)N1Cc2c(nc3ccccc3c2O)C1c1ccc2c(c1)OCO2 (racemic) [Compound 45, 1,2,3,4-Tetrahydro-3-(3.4-methylenedioxyphenyl)-2-(5-(4-(2-(1-pyrrolidinyl)ethoxy)phenyl)-furoyl)-9H-pyrrolo[3,4-b]quinolin-9-one]	1.33	
O=Cc1ccc(-c2ccc(C(=O)N3Cc4c([nH]c5ccccc5c4=O)C3c3ccc4c(c3)OCO4)o2)cc1 (stereo not drawn) [Compound 23, 1,2,3,4-Tetrahydro-3-(3,4-methylenedioxyphenyl)-2-[5-(4-formylphenyl)-furoyl]-9H-pyrrolo[3,4-b]-quinolin-9-one]	1.76	
O=c1c2c([nH]c3ccccc13)C(c1ccc3c(c1)CCO3)N(c1ncc(-c3ccccn3)cn1)C2 (stereo not drawn) [Compound 61]	1.03	
COc1ccc(-c2ccc(C(=O)N3Cc4c([nH]c5ccccc5c4=O)C3c3ccc4c(c3)OCO4)o2)cc1 (stereo not drawn) [Compound 21, 1,2,3,4-Tetrahydro-3-(3,4-methylenedioxyphenyl)-2-[5-(4-methoxyphenyl)-furoyl]-9H-pyrrolo[3,4-b]-quinolin-9-one]	1.93	
CN1CCN(C(=O)c2ccc(-c3ccc(C(=O)N4Cc5c([nH]c6ccccc6c5=O)[C@H]4c4ccc5c(c4)OCO5)o3)cc2)CC1 [Compound 69, (R)-1,2,3,4-Tetrahydro-3-(3,4-methylenedioxyphenyl)-2-(5-(4-(1-(4-methyl)-piperazinylcarbonyl)-phenyl)-furoyl)-9H-pyrrolo[3,4-b]quinolin-9-one]	0.32	
CN1CCN(C(=O)c2ccc(-c3ccc(C(=O)N4Cc5c([nH]c6ccccc6c5=O)C4c4ccc5c(c4)OCO5)o3)cc2)CC1 (stereo not drawn) [Compound 44, 1,2,3,4-Tetrahydro-3-(3,4-methylenedioxyphenyl)-2-(5-(4-(1-(4-methyl)piperazinylcarbonyl)-phenyl)-furoyl)-9H-pyrrolo[3,4-b]quinolin-9-one]	1.58	
O=C(c1ccc(-c2cccc(C(F)(F)F)c2)o1)N1Cc2c([nH]c3ccccc3c2=O)C1c1ccc2c(c1)OCO2 (stereo not drawn) [Compound 13, 1,2,3,4-Tetrahydro-3-(3,4-methylenedioxyphenyl)-2-[5-(3-trifluoromethylphenyl)furoyl]-9H-pyrrolo-[3,4-b]quinolin-9-one]	0.227	
O=c1c2c([nH]c3ccccc13)C(c1ccc3c(c1)OCO3)N(Cc1ccncc1)C2 (racemic) [Compound 5, 1,2,3,4-Tetrahydro-3-(3,4-methylenedioxyphenyl)-2-(pyridin-4-yl)methyl-9H-pyrrolo-[3,4-b]quinolin-9-one]	688	
COC(=O)c1ccc(/C=C/C(=O)N2Cc3c([nH]c4ccccc4c3=O)C2c2ccc3c(c2)OCO3)cc1 (racemic) [Compound 6, (E)-4-[3-Oxo-3-[1,2,3,4-tetrahydro-3-(3,4-methylenedioxyphenyl)-9H-pyrrolo-[3,4-b]quinolin-9-one-2-yl]-1-propenyl]benzoic Acid Methyl Ester]	0.507	
COC(=O)c1ccc(/C=C/C(=O)N2Cc3c([nH]c4ccccc4c3=O)C2c2ccc3c(c2)CCO3)cc1 (racemic) [Compound 20, (E)-4-[3-Oxo-3-[1,2,3,4-tetrahydro-3-(2,3-dihydrobenzofuran-5-yl)-9H-pyrrolo-[3,4-b]quinolin-9-one-2-yl]-1-propenyl]benzoic acid, methyl ester]	0.53	
O=C(c1cccnc1O)N1Cc2c([nH]c3ccccc3c2=O)C1c1ccc2c(c1)OCO2 (racemic) [Compound 25, 1,2,3,4-Tetrahydro-3-(3,4-methylenedioxyphenyl)-2-[2-hydroxynicotinoyl)-9H-pyrrolo[3,4-b]-quinolin-9-one]	1.57	
O=c1c2c([nH]c3ccccc13)[C@@H](c1ccc3c(c1)CCO3)N(Cc1ccccc1)C2 [Compound 77, (R)-1,2,3,4-Tetrahydro-2-benzyl-3-(2,3-dihydrobenzofuran-5-yl)-9H-pyrrolo-[3,4-b]quinolin-9-one]	62.7	
O=c1c2c([nH]c3ccccc13)C(c1ccc3c(c1)OCO3)N(c1ncc(-c3ccncc3)cn1)C2 (racemic) [Compound 57, 1,2,3,4-Tetrahydro-2-[5-(4-pyridinyl)-pyrimidin-2-yl]-3-(3,4-methylenedioxyphenyl)-9H-pyrrolo-[3,4-b]quinolin-9-one]	0.84	
COc1ccc(-c2cnc(N3Cc4c([nH]c5ccccc5c4=O)C3c3ccc(OC)c(OC)c3)nc2)cc1OC (stereo not drawn) [Compound 15, 1,2,3,4-Tetrahydro-[5-(3,4-dimethoxyphenyl)-pyrimidin-2-yl]-3-(3,4-dimethoxyphenyl)-9H-pyrrolo[3,4-b]quinolin-9-one]	1160	
O=c1c2c([nH]c3ccccc13)C(c1ccc3c(c1)OCO3)NC2 (racemic) [Compound 4, 1,2,3,4-Tetrahydro-3-(3,4-methylenedioxyphenyl)-9H-pyrrolo-[3,4-b]quinolin-9-one, hydrochloride salt]	664	
